According to ChEMBL document CHEMBL1201862, “PubChem BioAssay data set” (2004):
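Protocol summary: plate cells (96-well), add compound at 5 concentrations, incubate 48 h, interpolate endpoints linearly. GI50 is the concentration that inhibits growth by half.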 Activity calls are given as the source filed them. Cut-off read from the data, not from the text of the source: active = GI50 up to about 1.1 µM and inactive = higher.

Legend:
Experiment in all cases: NCI tumour cell line growth inhibition, 48 h
A549 = system: A549
ACHN = system: ACHN
BT-549 = system: BT-549
HCC 2998 = system: HCC 2998
HCT-116 = system: HCT-116
HT-29 = system: HT-29
M14 = system: M14
MDA-MB-435 = system: MDA-MB-435
Malme-3M = system: Malme-3M
NCI-H460 = system: NCI-H460
NCI-H522 = system: NCI-H522
OVCAR-4 = system: OVCAR-4
SF-295 = system: SF-295
SK-MEL-2 = system: SK-MEL-2
SN12C = system: SN12C
SNB-19 = system: SNB-19
UACC-62 = system: UACC-62
UO-31 = system: UO-31

Measured: GI50

CC1(C)CC(=O)C2=C(C1)C(c1ccccc1Cl)C1C(=O)CC(C)(C)CC1(O)O2 (stereo not drawn)
inactive: A549 > 100 µM | ACHN > 100 µM | BT-549 > 100 µM | HCC 2998 > 100 µM | HCT-116 26.9 µM | HT-29 > 100 µM | M14 98.2 µM | MDA-MB-435 25.9 µM | Malme-3M > 100 µM | NCI-H460 > 100 µM | NCI-H522 > 100 µM | OVCAR-4 > 100 µM | SF-295 > 31.6 µM | SK-MEL-2 > 100 µM | SN12C > 100 µM | SNB-19 > 100 µM | UACC-62 > 64.7 µM | UO-31 > 100 µM

CO[C@@]12C[C@H](CNC(=O)c3ccc[nH]3)O[C@@H]1NC(=O)N2
inactive: A549 > 100 µM | ACHN > 100 µM | BT-549 > 100 µM | HCC 2998 > 100 µM | HCT-116 > 100 µM | HT-29 > 100 µM | M14 > 100 µM | MDA-MB-435 > 100 µM | Malme-3M > 100 µM | NCI-H460 > 100 µM | NCI-H522 > 100 µM | OVCAR-4 > 100 µM | SF-295 > 100 µM | SK-MEL-2 > 100 µM | SN12C > 100 µM | SNB-19 > 100 µM | UACC-62 > 100 µM | UO-31 > 100 µM

Brc1ccc2[nH]cc([C@H]3CN[C@@H](c4c[nH]c5ccc(Br)cc45)CN3)c2c1
inactive: A549 2.52 µM | ACHN 1.93 µM | BT-549 > 41.1 µM | HCC 2998 1.69 µM | HCT-116 2.02 µM | HT-29 1.97 µM | M14 1.81 µM | MDA-MB-435 1.77 µM | Malme-3M 2.2 µM | NCI-H460 2.36 µM | NCI-H522 1.79 µM | OVCAR-4 1.94 µM | SF-295 4.97 µM | SK-MEL-2 2.09 µM | SN12C 2.91 µM | SNB-19 2.83 µM | UACC-62 5.04 µM | UO-31 1.91 µM

BrC1=C(Br)C2(SCCS2)[C@H]2C[C@@H]1c1ccccc12
inactive: A549 > 54.1 µM | ACHN > 44 µM | BT-549 38.4 µM | HCC 2998 21.3 µM | HCT-116 13.1 µM | HT-29 10.2 µM | M14 > 79.8 µM | MDA-MB-435 4.4 µM | Malme-3M 32.1 µM | NCI-H460 33.5 µM | NCI-H522 13.2 µM | OVCAR-4 29.9 µM | SF-295 > 100 µM | SK-MEL-2 41.2 µM | SN12C > 91.2 µM | SNB-19 > 100 µM | UACC-62 65.8 µM | UO-31 29.4 µM

O=[N+]([O-])c1ccc(CN(CCCl)OCCCl)cc1
inactive: A549 67.6 µM | ACHN 64.3 µM | BT-549 > 100 µM | HCC 2998 84.1 µM | HCT-116 80.7 µM | HT-29 > 100 µM | M14 > 100 µM | MDA-MB-435 > 100 µM | Malme-3M > 100 µM | NCI-H460 > 100 µM | NCI-H522 31.3 µM | OVCAR-4 56.9 µM | SF-295 > 100 µM | SK-MEL-2 > 100 µM | SN12C > 100 µM | SNB-19 > 100 µM | UACC-62 55.8 µM | UO-31 37.8 µM

Cc1cc2nc3[nH]nc(N)c3nc2cc1C
inactive: A549 > 100 µM | ACHN > 100 µM | BT-549 > 100 µM | HCC 2998 > 100 µM | HCT-116 > 100 µM | HT-29 > 100 µM | M14 > 100 µM | MDA-MB-435 > 100 µM | Malme-3M > 100 µM | NCI-H460 > 100 µM | NCI-H522 > 100 µM | OVCAR-4 > 100 µM | SF-295 > 100 µM | SK-MEL-2 > 100 µM | SN12C > 100 µM | SNB-19 > 100 µM | UACC-62 > 100 µM | UO-31 > 100 µM

CC(=O)NCCCCN(CCCNC(C)=O)C(=O)CNS(=O)(=O)c1cccc2c(N(C)C)cccc12
inactive: A549 > 100 µM | ACHN > 100 µM | BT-549 > 100 µM | HCC 2998 > 100 µM | HCT-116 > 100 µM | HT-29 > 100 µM | M14 > 100 µM | MDA-MB-435 > 100 µM | Malme-3M > 100 µM | NCI-H460 > 100 µM | NCI-H522 > 100 µM | OVCAR-4 > 100 µM | SF-295 > 100 µM | SK-MEL-2 > 100 µM | SN12C > 100 µM | SNB-19 > 100 µM | UACC-62 > 100 µM | UO-31 > 100 µM

N/N=C(\Nc1ccccc1)SCc1ccccc1
inactive: A549 > 100 µM | ACHN > 100 µM | BT-549 > 100 µM | HCC 2998 > 100 µM | HCT-116 > 100 µM | HT-29 > 100 µM | M14 > 100 µM | MDA-MB-435 > 100 µM | Malme-3M > 100 µM | NCI-H460 > 100 µM | NCI-H522 > 100 µM | OVCAR-4 > 100 µM | SF-295 > 100 µM | SK-MEL-2 > 100 µM | SN12C > 100 µM | SNB-19 > 100 µM | UACC-62 > 100 µM | UO-31 > 100 µM

Cc1cc(Br)cc(C)c1NC(=O)C(=O)Nn1c(S)nc2ccccc2c1=O
inactive: A549 > 100 µM | ACHN > 100 µM | BT-549 > 100 µM | HCC 2998 > 100 µM | HCT-116 > 100 µM | HT-29 > 100 µM | M14 > 100 µM | MDA-MB-435 > 100 µM | Malme-3M > 100 µM | NCI-H460 > 100 µM | NCI-H522 > 100 µM | OVCAR-4 33.8 µM | SF-295 > 100 µM | SK-MEL-2 > 100 µM | SN12C > 100 µM | SNB-19 78.9 µM | UACC-62 > 100 µM | UO-31 > 100 µM

CC(C)=CC(=O)c1[nH]c2ccccc2c1CC(=O)NCCc1cncn1C
inactive: A549 68.4 µM | ACHN 66.4 µM | BT-549 56.9 µM | HCC 2998 34.6 µM | HCT-116 67.9 µM | HT-29 35.7 µM | M14 72.3 µM | MDA-MB-435 47 µM | Malme-3M > 100 µM | NCI-H460 52.6 µM | NCI-H522 21.8 µM | OVCAR-4 > 100 µM | SF-295 > 100 µM | SK-MEL-2 > 100 µM | SN12C 77.1 µM | SNB-19 93.8 µM | UACC-62 61.9 µM | UO-31 21.4 µM

COc1ccc(C(SC2C(O)C(CO)OC2n2ccc(N)nc2=O)(c2ccccc2)c2ccc(OC)cc2)cc1 (stereo not drawn)
inactive: A549 18.5 µM | ACHN 31.3 µM | BT-549 18.2 µM | HCC 2998 17.1 µM | HCT-116 14.9 µM | HT-29 16.9 µM | M14 12.7 µM | MDA-MB-435 10.9 µM | Malme-3M 15 µM | NCI-H460 12.1 µM | NCI-H522 13.4 µM | OVCAR-4 24.8 µM | SF-295 6.79 µM | SK-MEL-2 16.8 µM | SN12C 13.3 µM | SNB-19 16 µM | UACC-62 16.1 µM | UO-31 18.5 µM
